Assay [1] concerns allergen-induced challenge. Nature of the assay: relative potencies of different isomers of contignasterol against allergen-induced challenge. The text has this: Table 4 illustrates the relative potencies of different isomers of contignasterol against allergen-induced challenge.
The test system of assay [2] is platelets. Description: platelet aggregation caused by collagen. Format: cell-based. The text has this: (§1) PAF is a local mediator of thrombosis. Similarly, collagen exposure of vessel walls leads to the formation of […] clot in the vessels. Therefore, prevention of the formation of blood clots has direct implication in the treatment of thrombosis and associated cardiovascular diseases.
(§2) PAF and collagen were used at their maximal concentrations which induced 100% aggregation of platelets.

Assay [3] deals with platelets. Description: platelet aggregation caused by platelet activating factor (PAF). The class given is cell-based.
From the text: as §1, §2

Another assay has as its system tracheal tissues. Nature of the assay: ovalbumine (antigen)-induced contraction of tracheal tissues from sensitized guinea pigs. The note with it: antigen ovalbumine (OA). The class given is cell-based, guinea pig. The text has this: We have used the contignasterol as defined in paragraph one of the Summary to block bronchoconstriction induced in guinea pigs. Guinea pigs were sensitized to ovalbumine (OA) that can serve as an antigen. The trachea from these animals after exposure to the antigen (OA) contracted in a similar manner as to in vivo situation.

Another assay deals with rat mast cells. Conditions: induced by anti-IgE; cited from earlier work.

We go through five compounds from US5646138A, “Contignasterol compounds and pharmaceutical compositions comprising the same” (University of British Columbia, priority 1992, dated 1997).

SMILES strings stand for the structures. Entries after “also recorded” stand apart in the source; their conditions may differ.

As to `CC(C)C1CC(O)OC([C@@H](C)[C@H]2CC(=O)[C@@H]3[C@@H]4[C@@H](O)[C@H](O)[C@H]5[C@@H](O)[C@H](O)CC[C@]5(C)[C@H]4CC[C@]23C)C1` (some centres unmarked) [Compound 1, contignasterol], 10 µM produced 43% inhibition in assay [1]. Also, in the assay with platelets [2], the “aggregation of platelets caused by collagen (in words)” value is recorded as “inhibited aggregation of platelets”. Moreover, in the assay with platelets [3], the “aggregation of platelets caused by PAF (in words)” value is reported as “inhibited aggregation of platelets”. Besides, the “contraction of trachea pretreated with contignasterol after exposure to antigen (in words)” value with tracheal tissues is on record as “did not significantly contract; also recorded: inhibited airway smooth muscle contraction”. For `CC(C)C1CC(O)OC([C@@H](C)[C@H]2CC(=O)[C@H]3[C@@H]4[C@@H](O)[C@H](O)[C@H]5[C@@H](O)[C@H](O)CC[C@]5(C)[C@H]4CC[C@]23C)C1` (some centres unmarked) [Compound 2, 14-epicontignasterol], the inhibition – broadly, the share of the control response that was lost under treatment – at 10 µM in assay [1] was 25%. The compound `COC1CC(C(C)C)CC([C@@H](C)[C@H]2CC(=O)[C@@H]3[C@@H]4[C@@H](O)[C@H](O)[C@H]5[C@@H](O)[C@H](O)CC[C@]5(C)[C@H]4CC[C@]23C)O1` (some centres unmarked) [Compound 3, Methyl-acetal Contignasterol] displayed an inhibition at 10 µM in assay [1] of 12%. For `CC(C)C[C@]1(O)C[C@@H](C)[C@H]2[C@@H]1C(=O)[C@@H]1[C@@H]3[C@@H](O)[C@H](O)[C@H]4C[C@H](O)CC[C@]4(C)[C@H]3CC[C@]21C` [xestobergsterol A, 23S-16β, 23-cyclo-3α, 6α, 7β, 23-tetrahydroxy-5α, 14β-cholestan-15-one], the “inhibition of histamine release from rat mast cells (in words)” value in the assay on rat mast cells was “potent inhibitors of histamine release”. For `CC(C)C[C@]1(O)C[C@@H](C)[C@H]2[C@@H]1C(=O)[C@@H]1[C@@H]3[C@@H](O)[C@H](O)[C@H]4C[C@H](O)[C@@H](O)[C@@H](O)[C@]4(C)[C@H]3CC[C@]21C` [xestobergsterol B, 23S-16β, 23-cyclo-1β, 2β, 3α, 6α, 7β, 23-hexahydroxy-5α, 14β-cholestan-15-one], the “inhibition of histamine release from rat mast cells (in words)” value in the assay on rat mast cells was “potent inhibitors of histamine release”.
